From PubChem BioAssay (NCI)
Where “and” joins values, the source holds several entries; their conditions need not be identical. Identical values can stand only once.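 How tested: cells in 96-well plates exposed to compound for 48 hours at five concentrations. The concentration for 50% growth inhibition is given as GI50. TGI: concentration producing complete growth inhibition.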

Legend:
Experiment in all cases: growth of human tumour cells (NCI), 48 h
HCT-116 colon = test system: HCT-116 colon
HCT-15 colon = test system: HCT-15 colon
IGROV1 ovarian = test system: IGROV1 ovarian
SK-OV-3 ovarian = test system: SK-OV-3 ovarian
SN12C renal = test system: SN12C renal
SNB-19 CNS = test system: SNB-19 CNS
SW-620 colon = test system: SW-620 colon
TK-10 renal = test system: TK-10 renal
UACC-62 melanoma = test system: UACC-62 melanoma
UO-31 renal = test system: UO-31 renal

Structure (SMILES) | GI50 (HCT-116 colon) | TGI (HCT-116 colon) | GI50 (HCT-15 colon) | TGI (HCT-15 colon) [µM] | GI50 (IGROV1 ovarian) | TGI (IGROV1 ovarian) | GI50 (SK-OV-3 ovarian) | TGI (SK-OV-3 ovarian) | GI50 (SN12C renal) | TGI (SN12C renal) [µM] | GI50 (SNB-19 CNS) | TGI (SNB-19 CNS) [µM] | GI50 (SW-620 colon) | TGI (SW-620 colon) | GI50 (TK-10 renal) | TGI (TK-10 renal) | GI50 (UACC-62 melanoma) | TGI (UACC-62 melanoma) | GI50 (UO-31 renal) | TGI (UO-31 renal)
CCOC(=O)C#Cc1c(C(=O)OCC)nnn1Cc1ccc([N+](=O)[O-])cc1 | 2.02 µM | 4.3 µM | 1.66 µM | 3.29 | 11.9 µM | 28.5 µM | 21.9 µM | 51.1 µM | 3.33 µM | 12.1 | 18.9 µM | 45.3 | 1.85 µM | 3.79 µM | 1.87 µM | 3.33 µM | 1.83 µM | 4.42 µM | 1.75 µM | 3.78 µM
CC([C@H]1CCC2C3CCC4C[C@@H](N)CC[C@]4(C)C3CC[C@@]21C)N(C)C (stereo not given in full) | 1.9 µM | 5.02 µM | 1.59 µM | 4.72 | 8.88 µM | 35 µM | 13.4 µM | 30.4 µM | 8.17 µM | 25.7 | 15.8 µM | 32.7 | 2.74 µM | 7.73 µM | 12 µM | 28.3 µM | 2.36 µM | 5.67 µM | 2.34 µM | 7.74 µM
O=C(NO)[C@@H](Cc1ccccc1)NS(=O)(=O)c1ccc(-c2ccccc2)cc1 | 11.7 µM | > 25 µM | > 25 µM | > 25 | 8.52 µM | > 25 µM | > 25 µM | > 25 µM | > 25 µM | > 25 | > 25 µM | > 25 | 21.2 µM | > 25 µM | 19.1 µM | > 25 µM | > 25 µM | > 25 µM | 13.2 µM | > 25 µM
Cc1cn2c(/C=N/N=C(N)N)c(-c3ccccn3)nc2s1 | 6.29 µM | 25.8 µM | 19.5 µM | 39.1 | 16 µM | > 100 µM | 26.8 µM | > 65 µM | 14.7 µM | 29.5 | 15.1 µM | 35.8 | 7.61 µM | 25 µM | 16.1 µM | 32.8 µM | 15.9 µM | 31.6 µM | 7.98 µM | > 20.5 µM
CCn1c(-c2nonc2N)nc2c(C#CC(C)(C)O)ncc(OC[C@H]3CCCNC3)c21 | 12.9 µM | > 95.9 µM | 20.3 µM | > 100 | 0.0876 µM | 23.2 µM | 0.866 µM | > 82.6 µM | 12.7 µM | 51.1 | 15.1 µM | 42.8 | 11.1 µM | > 100 µM | 2.03 µM | 42.6 µM | 12.9 µM | 28.2 µM | > 38.7 µM | > 100 µM
CCCN(CCC)c1ccc(/C=N/NC(=O)c2cccnc2)c(OC)c1 | 22.7 µM | > 100 µM | 27.5 µM | > 100 | 29.3 µM | > 100 µM | 21.6 µM | 71.3 µM | 36.1 µM | > 100 | 41.6 µM | > 100 | 24.5 µM | > 100 µM | 28.7 µM | 90.1 µM | 16.2 µM | 45.6 µM | 17.4 µM | 71.6 µM
Fc1cccc(-n2ccc(-c3ccccc3)nc2=S)c1 | 21.9 µM | 61.3 µM | 17.3 µM | 36.1 | 25.5 µM | > 62.2 µM | 1.59 µM | 44.9 µM | 3.01 µM | 10.4 | 12.9 µM | > 59.7 | > 100 µM | > 100 µM | 18.2 µM | 36 µM | > 54.6 µM | > 100 µM | 15.1 µM | 30 µM
COc1cc2nccc(Oc3ccc(NC(=O)Nc4cc(C)on4)c(Cl)c3)c2cc1OC | 2.29 µM and 2.91 µM | 5.48 µM and > 10 µM | 4.36 µM and 4.2 µM | > 100 | 2.51 µM and 2.85 µM | 8.36 µM and > 10 µM | 4.16 µM and 3.57 µM | 26.5 µM and > 10 µM | 2.13 µM and 2.56 µM | > 100 | 5.12 µM and > 10 µM | > 100 | 3.11 µM and 4.09 µM | 18.4 µM and > 10 µM | 3.42 µM and 3.9 µM | 13.2 µM and > 10 µM | 2.12 µM and 1.82 µM | 16.4 µM and > 10 µM | 1.88 µM and 2.5 µM | 5.76 µM and > 10 µM
Nc1n[n+](-c2ccccc2)no1 |  | > 100 µM |  | > 100 |  | > 100 µM |  | > 100 µM |  | > 100 |  | > 100 |  | > 100 µM |  | > 100 µM |  | 89.6 µM |  | > 100 µM
CC(CN(C)C)Oc1ccccc1NC1=C(Cl)C(=O)C(Nc2ccccc2OC(C)CN(C)C)=C(Cl)C1=O (stereo not given) | 0.17 µM | 0.344 µM | 0.176 µM | 0.375 | 0.58 µM | 1.88 µM | 2.29 µM | 5.43 µM | 0.347 µM | 0.853 | 1.71 µM | 3.28 | 0.175 µM | 0.357 µM | 0.479 µM | 0.974 µM | 1.55 µM | 3.05 µM | 0.437 µM | 0.853 µM
Cc1ccc(C(=O)/C(=C\c2ccc([N+](=O)[O-])cc2)S(=O)Cc2ccc(Cl)cc2)cc1 (stereo not given) | 1.43 µM | 2.92 µM | 1.61 µM | 3.75 | 1.77 µM | 3.45 µM | 9.55 µM | 21.3 µM | 1.76 µM | 3.64 | 1.83 µM | 3.68 | 1.59 µM | 3.44 µM | 1.86 µM | 3.89 µM | 1.65 µM | 3.22 µM | 1.41 µM | 2.78 µM
N#CC1(C#N)C2C=CC(c3coc4cccc2c34)C1(C#N)C#N (stereo not given) |  | 6.08 µM |  | 19.2 |  | 35.9 µM |  | 31.7 µM |  | 23.2 |  | 33.8 |  | 3.32 µM |  | 18.6 µM |  | 24.4 µM |  | 25.6 µM
CN(CC(=O)Nc1nc2ccccc2[nH]1)S(=O)(=O)c1ccc(Cl)cc1 | > 100 µM | > 100 µM | > 100 µM | > 100 | 21 µM | > 100 µM | > 100 µM | > 100 µM | > 100 µM | > 100 | > 100 µM | > 100 | > 100 µM | > 100 µM | > 100 µM | > 100 µM | > 100 µM | > 100 µM | > 100 µM | > 100 µM
